Data reported in the supplement of paper PMC10307832.

Experiments:
Experiment in all cases: relative viability (nuclei count vs DMSO), 5 days (fraction); higher = more cells survive
CAP-232 + Olaparib = compound: C[C@H]([C@@H](C(=O)N)NC(=O)[C@@H]1CSSC[C@@H](C(=O)N[C@H](C(=O)N[C@@H](C(=O)N[C@H](C(=O)N1)CCCCN)CC2=CNC3=CC=CC=C32)CC4=CC=C(C=C4)O)NC(=O)[C@@H](CC5=CC=CC=C5)N)O [CAP-232] + O=C(c1cc(Cc2n[nH]c(=O)c3ccccc23)ccc1F)N1CCN(C(=O)C2CC2)CC1 [Olaparib] (partner 8 µM)
Procedure, shortened: (§1)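 One day after seeding in 1536-well plates, lung cancer cell lines were dosed by pin tool. Dosing was either single-drug or a fixed anchor-drug dose plus five library-drug doses (not always all listed) in √10 steps. After 5 days, nuclei were stained in one fix-and-stain step and counted on 4× images, and relative viability is the nuclei count of treated wells over that of vehicle wells, given as the median of duplicate plates.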

CAP-232 + Decitabine = compound: C[C@H]([C@@H](C(=O)N)NC(=O)[C@@H]1CSSC[C@@H](C(=O)N[C@H](C(=O)N[C@@H](C(=O)N[C@H](C(=O)N1)CCCCN)CC2=CNC3=CC=CC=C32)CC4=CC=C(C=C4)O)NC(=O)[C@@H](CC5=CC=CC=C5)N)O [CAP-232] + Nc1ncn([C@H]2C[C@H](O)[C@@H](CO)O2)c(=O)n1 [Decitabine] (partner 2 µM)
Procedure, shortened: as §1

CAP-232 + Dasatinib = compound: C[C@H]([C@@H](C(=O)N)NC(=O)[C@@H]1CSSC[C@@H](C(=O)N[C@H](C(=O)N[C@@H](C(=O)N[C@H](C(=O)N1)CCCCN)CC2=CNC3=CC=CC=C32)CC4=CC=C(C=C4)O)NC(=O)[C@@H](CC5=CC=CC=C5)N)O [CAP-232] + Cc1nc(Nc2ncc(C(=O)Nc3c(C)cccc3Cl)s2)cc(N2CCN(CCO)CC2)n1 [Dasatinib] (partner 0.075 µM)
Procedure, shortened: as §1

CAP-232 + Navitoclax = compound: C[C@H]([C@@H](C(=O)N)NC(=O)[C@@H]1CSSC[C@@H](C(=O)N[C@H](C(=O)N[C@@H](C(=O)N[C@H](C(=O)N1)CCCCN)CC2=CNC3=CC=CC=C32)CC4=CC=C(C=C4)O)NC(=O)[C@@H](CC5=CC=CC=C5)N)O [CAP-232] + CC1(C)CCC(c2ccc(Cl)cc2)=C(CN2CCN(c3ccc(C(=O)NS(=O)(=O)c4ccc(N[C@H](CCN5CCOCC5)CSc5ccccc5)c(S(=O)(=O)C(F)(F)F)c4)cc3)CC2)C1 [Navitoclax] (partner 0.5 µM)
Procedure, shortened: as §1

CAP-232 + Foretinib = compound: C[C@H]([C@@H](C(=O)N)NC(=O)[C@@H]1CSSC[C@@H](C(=O)N[C@H](C(=O)N[C@@H](C(=O)N[C@H](C(=O)N1)CCCCN)CC2=CNC3=CC=CC=C32)CC4=CC=C(C=C4)O)NC(=O)[C@@H](CC5=CC=CC=C5)N)O [CAP-232] + COc1cc2c(Oc3ccc(NC(=O)C4(C(=O)Nc5ccc(F)cc5)CC4)cc3F)ccnc2cc1OCCCN1CCOCC1 [Foretinib] (partner 0.25 µM)
Procedure, shortened: as §1

Cell Line	relative viability (CAP-232 + Olaparib; first compound 0.4 µM)	relative viability (CAP-232 + Olaparib; first compound 1.265 µM)	relative viability (CAP-232 + Olaparib; first compound 4 µM)	relative viability (CAP-232 + Olaparib; first compound 12.65 µM)	relative viability (CAP-232 + Decitabine; first compound 0.4 µM)	relative viability (CAP-232 + Decitabine; first compound 1.265 µM)	relative viability (CAP-232 + Decitabine; first compound 4 µM)	relative viability (CAP-232 + Decitabine; first compound 12.65 µM)	relative viability (CAP-232 + Dasatinib; first compound 0.4 µM)	relative viability (CAP-232 + Dasatinib; first compound 1.265 µM)	relative viability (CAP-232 + Dasatinib; first compound 4 µM)	relative viability (CAP-232 + Dasatinib; first compound 12.65 µM)	relative viability (CAP-232 + Navitoclax; first compound 0.4 µM)	relative viability (CAP-232 + Navitoclax; first compound 1.265 µM)	relative viability (CAP-232 + Navitoclax; first compound 4 µM)	relative viability (CAP-232 + Navitoclax; first compound 12.65 µM)	relative viability (CAP-232 + Foretinib; first compound 0.4 µM)	relative viability (CAP-232 + Foretinib; first compound 1.265 µM)	relative viability (CAP-232 + Foretinib; first compound 4 µM)	relative viability (CAP-232 + Foretinib; first compound 12.65 µM)
NCI-H2405	0.836	0.957	0.831	0.53	0.715	0.752	0.796	0.578	0.233	0.203	0.196	0.208	0.821	1.07	0.795	0.562	1.04	1.11	1.05	0.79
NCI-H2009	0.799	0.684	0.74	0.52	0.397	0.391	0.341	0.33	0.288	0.278	0.273	0.195	1.15	1.14	1.13	1.04	1.23	1.17	1.21	1.07
HCC-78	0.852	0.863	1.08	0.924	0.755	0.764	0.687	0.636	0.431	0.392	0.523	0.363	0.789	0.658	0.697	0.732	0.564	0.562	0.473	0.568
NCI-H2170	0.622	0.588	0.738	0.636	0.496	0.492	0.492	0.486	0.684	0.558	0.557	0.58	0.68	0.573	0.578	0.603	1	1.04	1.02	1.05
NCI-H1793	0.921	0.922	1.04	0.877	0.473	0.406	0.389	0.494	0.382	0.365	0.393	0.367	0.412	0.346	0.329	0.361	0.678	0.761	0.639	0.725
HCC-366	0.4	0.383	0.289	0.299	0.407	0.301	0.317	0.384	0.71	0.568	0.771	0.685	1.06	1.17	1.2	1.09	0.914	0.948	0.891	0.898
NCI-H1651	0.196	0.184	0.2	0.214	0.681	0.579	0.707	0.683	0.357	0.395	0.465	0.33	1.02	0.969	1.08	0.535	0.709	0.913	0.843	0.485
LC-2-ad	0.726	0.738	0.768	0.7	0.866	0.705	0.76	0.771	0.907	0.525	0.547	0.26	0.428	0.363	0.497	0.33	0.875	0.878	0.894	0.524
HCC-827	0.699	0.627	0.622	0.672	0.334	0.357	0.324	0.365	0.312	0.302	0.312	0.23	0.96	1	1.03	0.993	1.05	1	1.01	1.01
SW 1573	0.395	0.416	0.469	0.356	0.48	0.534	0.45	0.169	0.416	0.493	0.603	0.0706	0.912	1.1	0.988	0.635	0.873	0.836	0.903	1.03
COR-L 105	0.733	0.61	0.712	0.571	0.629	0.647	0.684	0.477	0.337	0.352	0.273	0.249	0.748	0.69	0.796	0.498	0.955	0.851	1.22	0.572
LOU-NH91	0.945	0.873	0.907	0.574	0.787	0.787	0.8	0.594	0.593	0.548	0.618	0.437	0.729	0.734	0.665	0.437	0.994	0.903	0.86	0.919
LU99A	0.233	0.232	0.332	0.306	0.861	0.806	1.1	0.973	0.769	0.493	0.675	0.492	1.03	0.818	0.864	0.78	0.811	0.787	0.977	0.736
NCI-H1650	1.04	0.799	0.836	0.493	0.404	0.423	0.554	0.192	0.344	0.27	0.282	0.231	1.34	1.08	1.36	0.478	1.07	1.11	1.25	0.542
